According to US20180051317A1, “NON-RADIOACTIVE METHOD FOR DETERMINING THE CYTOLITIC ACTIVITY OF AN AGENT WITH RESPECT TO TARGET CELLS, USE THEREOF AND ASSOCIATED KIT” (CLEAN CELLS, priority 2015, published 2018):
Each block holds one compound with its values, some of them ahead of it.

Columns and labels:
Type in all cases: cell-based
[1] = test system: CHO cells stably expressing TNF-alpha and nanoluciferase; assay: anti-TNF-alpha ADCC assay, nanoluciferase release method; settings: mean±SD of 3 experiments
Protocol: (§1) The nanoluciferase method was compared to the ^51Cr method in an anti-TNF-alpha ADCC assay. For this, the CHO cells described in example 7, stably expressing TNF-alpha and nanoluciferase, were used, as was a standard range of adalimumab and of variations at 80% and 125% of this range. Three independent experiments were carried out, according to the same methodology as in the previous examples.

[2] = test system: CHO cells stably expressing human TNF-alpha in its membraned form; assay: anti-TNF-alpha CDC assay, 51Cr release method; settings: for mean potency: mean±SD
Protocol: (§2) The method for measuring nanoluciferase release was compared to the chromium method in a third model, that of the anti-TNF-alpha antibody adalimumab (Humira®). The present example illustrates the implementation thereof in an assay for measuring the CDC activity. For this, CHO cells pretransformed and selected to stably express human TNF-alpha in its membraned form were transformed to stably express nanoluciferase. […] Briefly, these cells, labeled or not labeled with ^51Cr, were incubated in the presence of increasing concentrations of adalimumab (Humira®) and of a source of complement (from guinea pig (Sigma)). The specific lysis was then measured by the appropriate method (chromium release or nanoluciferase release).
(§3) The percentage of specific lysis obtained for each concentration X is calculated in the same way for the two types of methods, on the basis of the measurements of radioactivity (in CCPM) or of luminescence (in RLU) according to the formula
(§4) The percentages of specific lysis are represented along the y-axis, each point (black circle for nanoluciferase and white squares for ^51Cr) representing the mean of the nine determinations (3 replicates in 3 independent experiments) and the vertical bars representing the standard deviations. The data were modeled by means of a 4-parameter sigmoidal regression using the GraphPad Prism software.

[3] = test system: CHO cells stably expressing human TNF-alpha in its membraned form; assay: anti-TNF-alpha CDC assay, nanoluciferase release method; settings: for mean potency: mean±SD
Protocol: as §2, §3, §4

[4] = test system: CHO cells stably expressing TNF-alpha and nanoluciferase; assay: anti-TNF-alpha ADCC assay, 51Cr release method; settings: mean±SD of 3 experiments
Protocol: as §1

[5] = test system: Raji cells; assay: cell death induced by a pro-apoptotic chemical agent (nanoluciferase release and TO-PRO-3 flow cytometry); settings: 48 hours, increasing concentrations; regardless of the method for measuring the mortality
Protocol: Raji cells transformed to stably express nanoluciferase (50 000 cells per well) are cultured for 48 hours at 37° C. (under a humidified atmosphere containing 5% CO2) in the presence of increasing concentrations of staurosporine, which is a pro-apoptotic drug, in RPMI-1640 medium containing 10% of FCS, and in the presence or absence of 0.2% of triton X-100 (to determine the maximum release). At the end of the incubation, 25 μl of supernatant are recovered from each well, transferred into a white “half-well” plate, mixed with 25 μl of NanoGlo® substrate diluted to 1/50 in D-PBS, incubated for 3 minutes and read on a Mithras LB940 luminometer. The results of the reading are expressed in RLU (relative luminescence units). The percentage of dead cells for each concentration of staurosporine is determined according to the formula (RLU[triton-free medium])/(RLU[0.2% triton])×100.
After removing the supernatant, the remainder of the cells are resuspended, extemporaneously mixed with a final concentration of 0.25 μM of the vital marker TO-PRO-3 (Life Technologies) and acquired on a C6 flow cytometer (BD/Accuri). The percentage of dead cells is determined during the analysis of the cytometry data as the percentage of cells having integrated the TO-PRO-3.
Two identical independent experiments were carried out, the results of which are presented on graphs A and B of FIG. 28. […]

[6] = test system: Raji target cells; assay: anti-CD20 CDC assay, nanoluciferase release method
Protocol: (§5) Raji target cells transformed to stably express nanoluciferase were incubated or not incubated for 1 hour in a saline solution of Na2CrO4 equivalent to 100 μCi of ^51Cr per million cells, then washed 4 times with RPMI-1640, 10% FCS, and counted. The cells (3000 per well), labeled or not labeled with ^51Cr, were then incubated at 37° C. in a humidified atmosphere at 5% CO2 in flat-bottomed 96-well plates treated for cell culture, in the presence of increasing concentrations of the rituximab antibody (MabThera®) and of cytotoxic effector cells (T lymphocytes expressing CD16, 30 000 cells per well) in RPMI-1640 supplemented with 5% of FCS.
(§6) After 4 hours of incubation, the percentage of specific lysis is measured according to the corresponding method (release of ^51Cr or of nanoluciferase depending on whether the cells have or have not been labeled with chromium): 25 μl of supernatant of the ^51Cr-labeled cells are recovered and deposited on a Lumaplate® (Perkin Elmer). At the same time, for the cells not labeled with ^51Cr, 25 μl of supernatant are recovered from each well, transferred into white “half-well” 96-well plates, mixed with 25 μl of NanoGlo® substrate diluted to 1/50 in D-PBS, incubated for 3 minutes and read on a Mithras LB940 luminometer (Berthold Technologies). After drying overnight, the radioactivity of the supernatants deposited in the Lumaplate® is measured in a Microbeta-Jet counter (Perkin Elmer) and expressed in CCPM (corrected count per minute) after standardization of the detectors.
(§7) The percentage of specific lysis obtained for each concentration X is calculated in the same way for the two types of methods, from the measurements of radioactivity (in CCPM) or of luminescence (in RLU) according to the formula
as §4, with “represented in FIG. 9” for “represented”, “point” for “point (black circle for nanoluciferase and white squares for ^51Cr)”
(§8) This approach also makes it possible to evaluate the accuracy of the method according to the ICH-Q2(R1) criteria.
(§9) Using the same type of target cells as that of example 4, the nanoluciferase method was compared to the ^51Cr method in an anti-CD20 CDC assay. The methodology applied was the same as that described in example 4, the cytolytic system being formed by a source of complement. In the same way, a standard range of antibody (rituximab) was used, and also 80% and 125% modified concentration ranges. Three independent experiments were carried out, one of which was carried out by a second operator.

[7] = test system: Raji target cells; assay: anti-CD20 ADCC assay, 51Cr release method
Protocol: (§10) The same Raji cells expressing nanoluciferase were or were not labeled with ^51Cr and were used in parallel in the assay.
as §5, §6, §7
as §4, with “represented in FIG. 9” for “represented”, “point” for “point (black circle for nanoluciferase and white squares for ^51Cr)”
as §8

[8] = test system: Raji target cells; assay: anti-CD20 ADCC assay, nanoluciferase release method
Protocol: as §10, §5, §6, §7
as §4, with “represented in FIG. 9” for “represented”, “point” for “point (black circle for nanoluciferase and white squares for ^51Cr)”
as §8

[9] = test system: Raji target cells; assay: anti-CD20 CDC assay, 51Cr release method
Protocol: as §5, §6, §7
as §4, with “represented in FIG. 9” for “represented”, “point” for “point (black circle for nanoluciferase and white squares for ^51Cr)”
as §8, §9

[10] = 51Cr, guinea pig complement, mean±SD over the whole of the ranges in the 3 experiments
[11] = guinea pig complement, mean±SD over the whole of the ranges in the 3 experiments
[12] = 100% range, mean±SD of 3 experiments
[13] = complement source, mean±SD, all of the 80%, 100% and 125% ranges
[14] = 80% range, mean±SD of 3 experiments
[15] = 125% range, mean±SD of 3 experiments
[16] = mean±SD of 3 experiments, 100% range
[17] = mean±SD, 80%, 100% and 125% ranges, 3 experiments, 4 h, CD16 T lymphocyte effectors

Compound: adalimumab
- mean potency ([1]; 80% range): 75.5±15.5%
- mean potency ([1]; 125% range): 114.2±22.8%
- mean potency ([2]; 51Cr, 80% range): 91.2±23.6%
- mean potency ([2]; 51Cr, 125% range): 153.9±29.2%
- Emax [2, 10]: 50.4±5.6%
- Emin [2, 10]: 3.2±2.8%
- EC50 ([2]; chromium, standard ranges, mean±SD of 3 experiments): 0.1508 ± 0.015 µg/mL
- mean potency ([3]; 80% range): 83.4±10.1%
- mean potency ([3]; 125% range): 131.7±47.2%
- Emax [3, 11]: 45.7±5.1%
- Emin [3, 11]: 0.9±1.5%
- EC50 ([3]; standard ranges, mean±SD of 3 experiments): 0.1569 ± 0.0234 µg/mL
- mean potency ([4]; 80% range): 91.4±43.3%
- mean potency ([4]; 125% range): 138.5±43.9%

Compound: CN[C@@H]1C[C@H]2O[C@@](C)([C@@H]1OC)n1c3ccccc3c3c4c(c5c6ccccc6n2c5c31)C(=O)NC4 [staurosporine]
- mortality of the target cells [5]: proportional relationship between the concentration of staurosporine and the mortality of the target cells

- EC50 [6, 12]: 0.0731 ± 0.0099 µg/mL
- potency (EC50[100%]/EC50[X%]×100) [7, 14]: 76.7±10%
- potency (EC50[100%]/EC50[X%]×100) [7, 15]: 131.9±11.9%
- EC50 [7, 16]: 0.0552 ± 0.0156 µg/mL
- potency (EC50[100%]/EC50[X%]×100) [8, 14]: 83.6±22%
- potency (EC50[100%]/EC50[X%]×100) [8, 15]: 119.5±22.7%
- EC50 [8, 16]: 0.0318 ± 0.0073 µg/mL
- EC50 [9, 12]: 0.1567 ± 0.0301 µg/mL
Compound: rituximab
- potency ([6]; 80% range, mean±SD): 65.0±12.9%
- potency ([6]; 125% range, mean±SD): 105.8±8.2%
- Emax [6, 13]: 95.6±7.0%
- Emin [6, 13]: −0.3±3.2%
- Emax (maximum lysis percentage) [7, 17]: 75.7±6.0%
- Emin (minimum lysis percentage) [7, 17]: 1.0±1.5%
- Emax (maximum lysis percentage) [8, 17]: 73.6±8.4%
- Emin (minimum lysis percentage) [8, 17]: 1.2±1.2%
- potency ([9]; 80% range, mean±SD): 69.6±12.3%
- potency ([9]; 125% range, mean±SD): 131.5±16.4%
- Emax [9, 13]: 88.6±7.8%
- Emin [9, 13]: 3.0±3.4%
